These results are taken from patent publication US7553838B2, “Mitotic kinesin inhibitors” (Merck & Co. Inc., priority 2004, dated 2009).

The target in the assay is T1, human poly-histidine tagged KSP motor domain (KSP(367H)) (Homo sapiens, UniProt P52732).
T1 construct: were used to amplify the motor domain and the neck linker region; made in house; host or cells: E. coli BL21 (DE3), pRSETa
T1 sequence (P52732 18-359 limits assumed): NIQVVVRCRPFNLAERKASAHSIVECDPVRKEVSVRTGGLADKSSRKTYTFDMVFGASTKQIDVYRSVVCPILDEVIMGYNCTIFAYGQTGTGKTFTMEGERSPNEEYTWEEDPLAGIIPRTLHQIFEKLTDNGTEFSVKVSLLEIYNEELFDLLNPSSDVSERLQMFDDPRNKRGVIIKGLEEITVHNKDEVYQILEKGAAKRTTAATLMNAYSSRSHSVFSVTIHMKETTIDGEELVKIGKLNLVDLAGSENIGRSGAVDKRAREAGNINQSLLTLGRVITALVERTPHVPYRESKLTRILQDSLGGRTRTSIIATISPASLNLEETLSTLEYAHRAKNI
Kind of assay: Kinesin ATPase In Vitro Assay. Format: biochemical. The conditions noted are these: microtubules, 1 mM ATP, 23° C.; free phosphate by quinaldine red/ammonium molybdate. The source says: I. Kinesin ATPase In Vitro Assay
Cloning and expression of human poly-histidine tagged KSP motor domain (KSP(367H))
Plasmids for the expression of the human KSP motor domain construct were cloned by PCR using a pBluescript full length human KSP construct (Blangy et al., Cell, vol. 83, pp 1159-1169, 1995) as a template. The N-terminal primer 5′-[…] (SEQ.ID.NO.: 1) and the C-terminal primer 5′-[…] […] (SEQ.ID.NO.: 2) were used to amplify the motor domain and the neck linker region. The PCR products were digested with AseI and XhoI, ligated into the NdeI/XhoI digestion product of pRSETa (Invitrogen) and transformed into E. coli BL21 (DE3).
Cells were grown at 37° C. to an OD600 of 0.5. […]
The kinesin motor domain is incubated with microtubules, 1 mM ATP (1:1 MgCl2: Na-ATP), and compound at 23° C. in buffer containing 80 mM K-HEPES (pH 7.0), 1 mM EGTA, 1 mM DTT, 1 mM MgCl2, and 50 mM KCl. […] Free phosphate from the ATP hydrolysis reaction is measured via a quinaldine red/ammonium molybdate assay by adding 150 μl of quench C buffer containing a 2:1 ratio of quench A:quench B. Quench A contains 0.1 mg/ml quinaldine red and 0.14% polyvinyl alcohol; quench B contains 12.3 mM ammonium molybdate tetrahydrate in 1.15 M sulfuric acid. The reaction is incubated for 10 minutes at 23° C., and the absorbance of the phospho-molybdate complex is measured at 540 nm.

The term IC50 denotes the concentration that inhibits the measured activity by half. With `CC(C(=O)N1N=C(c2cc(F)ccc2F)CC1(CO)c1ccccc1)N1CCN(C)CC1` (racemic) [Compound 3-4, {3-(2,5-difluorophenyl)-1-[2-(4-methylpiperazin-1-yl)propanoyl]-5-phenyl-4,5-dihydro-1H-pyrazol-5-yl}methanol], the half-inhibitory concentration (IC50) was at most 50 µM.
